Data published in US11813326B2, “Cell-associating immunologic adjuvants for treatment enhancement” (ACADEMIA SINICA, priority 2018, dated 2023).
Each block holds one compound with its values, some of them ahead of it.

Legend:
[1] = Encapsulation efficiency of thin-shell polymeric nanoparticles; format: physicochemical; settings: for encapsulation efficiency: cargo in thin-shell hollow PLGA nanoparticles
[2] = In vivo immune potentiation after footpad injection (lymph node IFN-β, serum TNF-α); settings: after footpad administration, mice
Procedure: Immune potentiation by the cd-GMP nanoparticles was further compared to free cd-GMP in vivo in mice. 48 hours following footpad injections, the draining popliteal lymph nodes were collected for IFN-β quantification. […] In addition, the systemic level of TNF-α, an indicator of reactogenicity, was also monitored following the footpad administration of free cd-GMP and cd-GMP nanoparticles.

[3] = test system: B16-OVA tumors; assay: Adjuvant retention in tumors and cancer cells after intratumoral injection; format: in vivo, B6 mice; settings: intra-tumoral, 24 hours
Procedure: To validate cell-associating effect of the nanoparticle adjuvant formulation, B6 mice were inoculated subcutaneously with B16-OVA tumors. Nanoparticle-mediated adjuvant retention with the B16 cells was validated using whole body imaging, flow cytometric analysis, and fluorescence microscopy. Dye-labelled STING agonist (2′-[DY-547]-AHC-c-diGMP) was administered in its free form and nanoparticle form intra-tumorally and examined after 24 hours.

[4] = test system: B16-OVA tumors; assay: Tumor treatment efficacy of adjuvant plus cisplatin, B16-OVA subcutaneous model; format: in vivo, B6 mice; settings: intra-tumoral treatment
Procedure: To study the in vivo efficiency of the treatment modality, B6 mice were inoculated subcutaneously with B16-OVA tumors. When the tumors appeared palpable, they were pre-treated with free cGAMP or cGAMP-loaded nanoparticles prior to chemotherapy by cisplatin (CTTP). 24 hours following intra-tumoral adjuvant administration, the mice were given an intra-tumoral cisplatin injection to induce cell death (FIG. 9(a)). These two groups are designated cGAMP+CTTP and NP+CTTP to differentiate the use of free cGAMP and cGAMP-loaded nanoparticles, respectively. For controls, tumor-bearing mice receiving no treatment (placebo), cistplatin only (CTTP only) and cGAMP-loaded nanoparticles only (NP only) were also prepared. For cGAMP administration, 2.5 μg of the adjuvant was administered in 50 μL of solution. For cisplatin administration, 235 μg of the chemodrug was administered in 100 μL of solution. Following the different treatments, the tumor volumes were monitored over time. […] In contrast, no other group had any tumor with complete regression (FIG. 9(b), (c)). […] With the tumor-free surviving mice from the NP+CTTP group, 4 of them were re-challenged with B16-OVA cells on day 60 and compared to animals that had no prior tumor challenge and treatment.

[5] = test system: HeLa cells; assay: Association of cGAMP adjuvant with HeLa cells and cisplatin-induced debris (confocal, FACS); format: cell-based

Compound: dye-labelled BSA: dye-labelled bovine serum albumin cargo
encapsulation efficiency [1]: 35%

encapsulation efficiency [1]: 37%
encapsulation efficiency ([1]; listed as cd-GMP): about 40%
cargo molecules per nanoparticle ([1]; loading concentration 8 mM DNA, 50 mg/mL BSA, cd-GMP at about 40% efficiency): approximately 2,000
serum level of TNF-α (indicator of reactogenicity) [2]: elevated level
Compound: Nc1nc2c(ncn2[C@@H]2O[C@@H]3COP(=O)(O)O[C@H]4[C@@H](O)[C@H](n5cnc6c(=O)[nH]c(N)nc65)O[C@@H]4COP(=O)(O)O[C@H]3[C@H]2O)c(=O)[nH]1 [cyclic di-GMP]

adjuvant association within the cancer cells ([3]; flow cytometry and confocal microscopy of extracted cells): little adjuvant retention
adjuvant retention inside the tumor ([3]; whole body imaging): little adjuvant retention
Compound: 2′-[DY-547]-AHC-c-diGMP [free adjuvant]

Compound: N.N.[Cl][Pt][Cl] [CTTP only, cisplatin]
tumor regression [4]: neither CTTP only nor NP only treatment induced tumor regression

Compound: Nc1nc2c(ncn2[C@@H]2O[C@@H]3COP(=O)(O)O[C@H]4[C@@H](O)[C@H](n5cnc6c(N)ncnc65)O[C@@H]4COP(=O)(O)O[C@@H]2[C@@H]3O)c(=O)[nH]1 [free cGAMP, 2′3′-cGAMP]
capacity to associate with the cells [5]: little capacity
